Source: patent US20020137929A1, “1 - (3-heterocyclylphenyl) isothiourea, -isourea, -guanidine and -amidine herbicidal agents” (Intellectual Property Department, BASF Aktiengesellschaft, priority 1998, published 2002)

Tests used:
ORYSAT (Rice, Tebonnet) [1] = experiment: Rice tolerance to post-transplant applications, flooded paddy conditions (Table IV); type: in vivo, Oryza sativa, (L.) Tebonnet
From the text: Results of herbicide evaluation are expressed on a rating scale (0-9). The scale is based upon a visual observation of plant stand, vigor, malformation, size, chlorosis and overall plant appearance as compared with a control.
Plastic containers containing weeds which are 3 to 5 cm tall and rice seedlings at the 1.5 to 2.5 leaf stage are flooded with water. The water is maintained at 1.5 to 3 cm above the soil surface for the duration of the experiment. Test compounds are applied as aqueous/ acetone mixtures 50/50 v/v directly into the flood water to provide the equivalent of about 0.0313 to 0.500 kg/ha of active ingredient. The treated containers are placed on greenhouse benches and cared for in accordance with conventional greenhouse procedures. Three to four weeks after treatment, the test is terminated and each container is examined and herbicidal effect rated according to the rating system provided in Example 37. The compounds evaluated are reported by compound number given in Example 37.

MOOVA (Monochoria) = experiment: Postemergence weed control under flooded paddy conditions; type: in vivo, Monochoria vaginalis; details: postemergence weeds, 3-4 weeks after treatment
Procedure, shortened: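 Flood-water application, about 0.0313–0.500 kg/ha a.i. in aqueous/acetone 50/50 v/v; water depth 1.5–3 cm throughout. Weeds 3–5 cm, rice 1.5–2.5 leaf. Greenhouse; 0–9 visual rating vs control at 3–4 wk.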

CYPIR (Rice Flatsedge) = experiment: Preemergence weed control under flooded paddy conditions; type: in vivo, Cyperus iria; details: rated 3-4 weeks after treatment
Procedure, shortened: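 Visual injury scored 0-9 against control three to four weeks post-treatment, greenhouse-grown. Application: acetone/water (50/50) solutions dosed directly into flood water (1.5-3 cm over silt loam, planted top 0.5 cm), roughly 0.0313 to 0.500 kg/ha active ingredient.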

AMBEL (Ragweed, Common) = experiment: Preemergence herbicidal evaluation; type: in vivo, Ambrosia artemisifolia; details: rated 4-5 weeks after treatment; for AMBEL rating: preemergence, 0-9 scale
Procedure, shortened: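 Each species is sown separately in potting soil over roughly an inch of soil before any emergence. The soil surface then receives an aqueous acetone spray delivering about 0.0156 to 0.500 kg/ha of compound. After four to five weeks, injury is scored from 0 to 9 relative to a control.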

ORYSAT (Rice, Tebonnet) [2] = experiment: Rice tolerance to post-transplant applications, flooded paddy conditions (Table III); type: in vivo, Oryza sativa, (L.) Tebonnet
Procedure, shortened: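 Injury scored 0-9 by eye against untreated control, judging stand, vigor, malformation, size and chlorosis, three to four weeks after treatment. Compound in 50/50 aqueous/acetone, about 0.0313 to 0.500 kg/ha, was applied to paddy water (1.5 to 3 cm depth) three days after transplanting paired ten-day-old Tebonnet rice seedlings.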

Structure (SMILES)	Herbicidal rating ORYSAT (rice tolerance) (ORYSAT (Rice, Tebonnet) [1]; in vivo)	Herbicidal rating MOOVA (MOOVA (Monochoria); rate 0.1160 kg/ha)	Herbicidal rating MOOVA (MOOVA (Monochoria); rate 0.2310 kg/ha)	Herbicidal rating MOOVA (MOOVA (Monochoria); rate 0.4630 kg/ha)	Herbicidal rating CYPIR (CYPIR (Rice Flatsedge); 0.1160 kg/ha)	Herbicidal rating CYPIR (CYPIR (Rice Flatsedge); 0.2310 kg/ha)	Herbicidal rating CYPIR (CYPIR (Rice Flatsedge); 0.4630 kg/ha)	AMBEL preemergence herbicidal rating (AMBEL (Ragweed, Common); rate 0.2500 kg/ha)	Herbicidal rating ORYSAT (rice tolerance) (ORYSAT (Rice, Tebonnet) [2]; in vivo)	Herbicidal rating CYPIR (CYPIR (Rice Flatsedge); 0.1250 kg/ha)	Herbicidal rating CYPIR (CYPIR (Rice Flatsedge); 0.2500 kg/ha)	Preemergence herbicidal rating AMBEL (AMBEL (Ragweed, Common); rate 0.0625 kg/ha)	Preemergence herbicidal rating AMBEL (AMBEL (Ragweed, Common); rate 0.1250 kg/ha)	Preemergence herbicidal rating AMBEL (AMBEL (Ragweed, Common); rate 0.2500 kg/ha)	further results
CCOC(=O)CN1C(=O)C(=C2CCCC2)SC1=Nc1cc(-n2c(=O)cc(C(F)(F)F)n(C)c2=O)c(F)cc1Cl [Compound 18, Ethyl 2-{{2-chloro-5-[3,6-dihydro-3-methyl-2,6-dioxo-4-(trifluoromethyl)-1(2H)-pyrimidinyl]-4-fluorophenyl}imino}-5-cyclopentylidene-4-oxo-3-thiazolidineacetate]	3.0	9.0	9.0	9.0	0.0	0.0	0.0	4.0	3.0	–	–	–	–	–	AMBEL preemergence herbicidal rating (AMBEL (Ragweed, Common); rate 0.1250 kg/ha): 1.0
CCOC(=O)CN1C(=O)C(=C(C)C)S/C1=N/c1cc(-n2c(=O)cc(C(F)(F)F)n(C)c2=O)c(F)cc1Cl [Compound 20, Ethyl 2-{{2-chloro-5-[3,6-dihydro-3-methyl-2,6-dioxo-4-(trifluoromethyl)-1(2H)-pyrimidinyl]-4-fluorophenyl}imino}-5-isopropylidene-4-oxo-3-thiazolidineacetate]	2.0	9.0	9.0	9.0	0.0	0.0	0.0	3.0	2.0	–	–	–	–	–	AMBEL preemergence herbicidal rating (AMBEL (Ragweed, Common); rate 0.0625 kg/ha): 0.0; AMBEL preemergence herbicidal rating (AMBEL (Ragweed, Common); rate 0.1250 kg/ha): 0.0
CCOC(=O)CN1C(=O)C(=Cc2ccc(F)cc2)SC1=Nc1cc(-n2c(=O)cc(C(F)(F)F)n(C)c2=O)c(F)cc1Cl [Compound 21, Ethyl 2-{{2-chloro-5-[3,6-dihydro-3-methyl-2,6-dioxo-4-(trifluoromethyl)-1(2H)-pyrimidinyl]-4-fluorophenyl}imino}-5-(p-fluorobenzylidene)-4-oxo-3-thiazolidineacetate]	0.0	0.0	0.0	0.0	0.0	0.0	0.0	0.0	0.0	–	–	–	–	–	–
Cn1c(C(F)(F)F)cc(=O)n(-c2cc(N=C3SCC(=O)N3CCC(=O)O)c(Cl)cc2F)c1=O [Compound 30, 2-{{2-Chloro-5-[3,6-dihydro-3-methyl-2,6-dioxo-4-(trifluoromethyl)-1(2H)-pyrimidinyl]-4-fluorophenyl}imino}-4-oxo-3-thiazolidinepropionic acid]	0.0	–	–	–	–	–	–	–	0.0	2.0	4.5	1.0	5.0	6.0	Herbicidal rating MOOVA (MOOVA (Monochoria); rate 0.1250 kg/ha): 1.5; Herbicidal rating MOOVA (MOOVA (Monochoria); rate 0.2500 kg/ha): 4.5; Preemergence herbicidal rating AMBEL (AMBEL (Ragweed, Common); rate 0.0313 kg/ha): 0.0
Cn1c(C(F)(F)F)cc(=O)n(-c2cc(N=C3SCC(=O)N3CCC(=O)O)c(Cl)cc2F)c1=O [Compound 31, 2-{{2-Chloro-5-[3,6-dihydro-3-methyl-2,6-dioxo-4-(trifluoromethyl)-1(2H)-pyrimidinyl]-4-fluoro-phenyl}imino}-4-oxo-3-thiazolidinepropionic acid]	0.0	–	–	–	–	–	–	–	0.0	0.0	2.5	0.0	4.0	9.0	Herbicidal rating MOOVA (MOOVA (Monochoria); rate 0.0625 kg/ha): 0.0; Herbicidal rating MOOVA (MOOVA (Monochoria); rate 0.1250 kg/ha): 0.0; Herbicidal rating MOOVA (MOOVA (Monochoria); rate 0.2500 kg/ha): 2.5; Herbicidal rating CYPIR (CYPIR (Rice Flatsedge); 0.0625 kg/ha): 0.0
CCOC(=O)CCN1C(=O)CSC1=Nc1cc(-n2c(=O)cc(C(F)(F)F)n(C)c2=O)c(Cl)cc1Cl [Compound 32, Ethyl 2-{{2,4-dichloro-5-[3,6-dihydro-3-methyl-2,6-dioxo-4-(trifluoromethyl)-1(2H)-pyrimidinyl]-phenyl}imino}-4-oxo-3-thiazolidinepropionate]	0.0	–	–	–	–	–	–	–	0.0	0.0	0.0	0.5	0.5	5.5	Preemergence herbicidal rating AMBEL (AMBEL (Ragweed, Common); rate 0.0156 kg/ha): 0.0; Preemergence herbicidal rating AMBEL (AMBEL (Ragweed, Common); rate 0.0313 kg/ha): 0.5; Preemergence herbicidal rating AMBEL (AMBEL (Ragweed, Common); rate 0.5000 kg/ha): 9.0
CCOP(=O)(CN1C(=O)CSC1=Nc1cc(-n2c(=O)cc(C(F)(F)F)n(C)c2=O)c(F)cc1Cl)OCC [Compound 35, Diethyl {{2-{{2-chloro-5-[3,6-dihydro-3-methyl-2,6-dioxo-4-(trifluoromethyl)-1(2H)-pyrimidinyl]-4-fluorophenyl}imino}-4-oxo-3-thiazolidinyl}methyl}phosphonate]	–	–	–	–	–	–	–	–	–	0.0	0.0	0.0	3.0	9.0	Herbicidal rating ORYSAT (rice tolerance) (ORYSAT (Rice, Tebonnet) [1]; rate 0.1250 kg/ha, flooded paddy, post-transplant rice, 3-4 weeks after treatment): 2.0; Herbicidal rating ORYSAT (rice tolerance) (ORYSAT (Rice, Tebonnet) [1]; rate 0.2500 kg/ha, flooded paddy, post-transplant rice, 3-4 weeks after treatment): 3.0; Herbicidal rating ORYSAT (rice tolerance) (ORYSAT (Rice, Tebonnet) [2]; 0.1250 kg/ha, post-transplant rice, flooded paddy, rated 3-4 weeks after treatment): 2.0; Herbicidal rating ORYSAT (rice tolerance) (ORYSAT (Rice, Tebonnet) [2]; 0.2500 kg/ha, post-transplant rice, flooded paddy, rated 3-4 weeks after treatment): 3.0
COC(=O)C1(N2C(=O)CSC2=Nc2cc(-n3c(=O)cc(C(F)(F)F)n(C)c3=O)c(F)cc2Cl)CCCCC1 [Compound 81, Methyl 1-{2-{{2-chloro-5-[3,6-dihydro-3-methyl-2,6-dioxo-4-(trifluoromethyl)-1(2H)-pyrimidinyl]-4-fluorophenyl}imino}-4-oxo-3-thiazolidinyl}-cyclohexanecarboxylate]	0.0	–	–	–	–	–	–	–	–	–	–	–	–	–	CYPIR herbicidal effect rating (CYPIR (Rice Flatsedge); 0.0625 kg/ha): 4.0; CYPIR herbicidal effect rating (CYPIR (Rice Flatsedge); 0.1250 kg/ha): 5.0; CYPIR herbicidal effect rating (CYPIR (Rice Flatsedge); 0.2500 kg/ha): 5.0; AMBEL rating (AMBEL (Ragweed, Common); 0.0313 kg/ha): 6.0; AMBEL rating (AMBEL (Ragweed, Common); 0.0625 kg/ha): 6.0; AMBEL rating (AMBEL (Ragweed, Common); 0.1250 kg/ha): 9.0; AMBEL rating (AMBEL (Ragweed, Common); 0.2500 kg/ha): 9.0; ORYSAT herbicidal effect rating (rice tolerance) (ORYSAT (Rice, Tebonnet) [2]; in vivo): 0.0
